Data set [1] is described as follows: Repeat dosing study, d3-creatine levels in non-human primate (NHP) brain (FIG. 2, Table 7). The settings on record: 7 infusions q.d., all brain regions tested. The class given is in vivo. The method, then: FIG. 2 is a graph of the data from a multi-dose study comparing d3-creatine and d3-creatinine levels in the brain of non-human primates, measured after a total of 7 infusions of compound 14 administered q.d. (once daily). Cr=d3-creatine; CRN=d3-creatinine.
Non-human primate (NHP) brains were dosed with Compound 8 (120 mg/kg) and Compound 14 (18 mg/kg) over a seven day period (i.v. infusion provide q.d.).

A short description of data set [2]: In vivo IV dosing in CrT KO mice: prodrug, d3-Cr and d3-Crn in brain (Table 5). The settings on record: IV 10 mg/kg, CrT KO mouse brain; BQL prodrug = 41.2 ng/mL. An outline of the steps: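 CrT KO mice received prodrugs by IV injection at 10, 15 or 25 mg/kg. Brains were collected, flash frozen and homogenized in 100 mM KPI buffer with anti-proteases. Prodrug, d3-Cr and d3-Crn were quantified by LC-MS/MS and expressed as brain concentration (macrocycles) or AUC over time (linear prodrugs).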

Data set [3] can be described thus: d3-Creatine and d3-creatinine concentration in CrT KO mice brain after IV bolus dose (FIGS. 3 and 4, Table 6). The class given is in vivo. The settings on record: CrT KO mice, 10 mg/kg IV, FIG. 4. The method, then:
The brain concentrations of d3-creatine and d3-creatinine was measured in CrT KO mice following 10 mg/kg single dose IV bolus dose of compound 14 and 15 (FIGS. 3 and 4). As shown by FIG. 3, brain d3-creatine concentration was higher following administration of compound 15 compared to compound 14. […] Without bound to any theory, the macrocyclic compound 15 prodrug reduces d3-creatine cyclization to d3-creatinine when compared to linear compound 14 prodrug.
The concentration of d3-creatine in CrT KO mice brain were also measured for other compounds disclosed in the present application as shown in Table 6. The concentrations of d3-creatine, d3-creatinine and creatine prodrugs are measured by LC-MS/MS. The brain sample is homogenized with 4× (weight to volume) of KPI 100 mM buffer containing anti-proteases and anti-phosphatases (if needed). 50 μl of brain homogenate is then de-proteinized using 4× volume/volume of a solution containing 80% acetonitrile and 20% water with bucetin, d5-Cr (internal standard). The plate is then spun at 4000 rpm, 10 minutes, 4° C. and samples are transferred to a new plate for bioanalysis. Each analyte in each sample was quantitated against a curve in matching biomatrix using an authentic standard.

Data set [4] can be described thus: Chemical stability in simulated gastric fluid (SGF) without pepsin. The settings on record: 50 μM prodrug. The class given is physicochemical. The method, boiled down:
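Incubations used 50 μM compound at 37 °C in phosphate buffered saline, fasted simulated intestinal fluid without pancreatin, or fasted simulated gastric fluid without pepsin.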

A short description of data set [5]: Liver microsome stability, human. The class given is in vitro ADME. The following applies: liver microsomes, pH 7.4, Table 2C, read-out: Microsome Stability Human t1/2. An outline of the steps:
(§1)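 Test compound incubated with mouse or human liver microsomes and NADPH in 0.1 M potassium phosphate, 1.0 mM EDTA, pH 7.4, with a 60-min no-NADPH control. Samples quenched with ACN containing internal standard at 0, 5, 10, 20, 30 and 60 min, then analysed by LC/MS.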
In general terms: Liver microsomes are a subcellular fraction often used to study metabolism.

Data set [6] in a line: Single-dose study in CrT KO mice: creatine and creatinine in plasma and brain over 8 h (FIG. 1). The class given is in vivo. As to the method: FIG. 1 is a graph of the data from a single-dose study comparing d3-creatine and d3-creatinine levels in the plasma and brain of CrT KO mice treated with compound 15 and measured over 8 h. Cr=d3-creatine; CRN=d3-creatinine.
The plasma and brain concentrations of creatine and creatinine was measured in CrT KO mice upon treatment with compound 15 (FIG. 1). […] The ratio of [creatine]Brain.[creatine]Plasma can be an useful parameter for a successful clinical development of creatine prodrugs for treating CTD and related conditions.

A short description of data set [7]: Liver microsome stability, mouse. The class given is in vitro ADME. The settings on record: liver microsomes, pH 7.4, Table 2C, read-out: Microsome Stability Mouse t1/2. The method, boiled down:
as §1

Data set [8] relates to Phenocell CrT deficient neurons (iPSC-derived human neurons). The data set is described as follows: Creatine prodrug uptake and d3-creatine release in Phenocell CrT deficient neurons (Table 4B). The following applies: 2 hours. The class given is cell-based. As to the method: Human neurons were obtained by differentiation of iPSC-derived neural stem cells for 14 days. The iPSCs were obtained from Phenocell Corporation. Neurons were cultured and differentiated to Day 10 and then frozen in liquid nitrogen. Neurons were thawed and replated at 1×10^6 per well of viable cells on poly-ornithine/laminin coated plates in 2 ml medium per well. Differentiation in complete Neurol medium with 2 ng/ml FGF2 was carried out for 4 additional days with a complete medium change (90% of medium) on Day 12. Activin A (20 ng/ml final conc.) was spiked into the cultures on Day 11 and Day 13. […] In parallel, compounds were incubated in medium alone to assess chemical stability of parent prodrug and metabolites. At the end of the 2 hour incubation, supernatants were collected and frozen at −80 C. Neurons in 6 well plates were washed gently 3× with HBSS and frozen at −80° C. Cell lysates were obtained by addition of 130 μl/well 10 mM Tris pH 7.4 with complete Mini protease inhibitors and scraping of wells. Plates were kept on ice during processing. Lysates were homogenized by hand briefly with a green pestle in 1.5 ml centrifuge tubes and then vortexed at high speed for 5 seconds. Lysates were centrifuged at 13,000 g, 10 minutes, 4 C and supernatants (cytosol fraction) were transferred in a new tube. A crash solution constituted of 80% acetonitrile and 20% water with bucetin, d5-Cr (internal standard) was added at 4:1 volume to volume to 50 ul of all samples for a total volume of 250 μL. Then plate was spun at 4000 rpm, 10 minutes, […] Samples were transferred to a new plate and frozen at −80 C prior to analysis by LC-MS/MS (Table 4B).

A value given as a limit tells only on which side of the number the result lay.

Take `Cl.[2H]C([2H])([2H])N(CC(=O)OCCCCCCC)C(=N)NC(=O)CCCCCC` [Compound 14]: the “d3-creatine (d3-Cr) levels in NHP brain on repeat administration (in words)” value in data set [1] was “dramatically increases”. For the same molecule, the “AUClast prodrug in the brain” value in data set [2] is given as “BQL”. The “brain concentration of d3-creatinine, compound 14 versus compound 15” value in data set [3] is listed as “not significantly different”. For the same molecule, the “Chemical Stability SGF, no enzyme % T0 at 2 hours at 37 °C.” value in data set [4] (Table 2A) is listed as 80%.
As to `Cl.[2H]C([2H])([2H])N1CC(=O)OCCCCCCCCCCC(=O)NC1=N` [Compound 15, 5-imino-4-trideuteriomethyl-1-oxa-4,6-diazacycloheptadecane-2,7-dione Hydrochloride], the half-life at 10 μM in data set [5] and in data set [7] was below 5 min each time. The “creatine levels compared to creatinine (CRN) levels” value in data set [6] was “higher than creatinine (CRN) levels”. The “brain creatine (Cr) concentration compared to plasma” value in data set [6] (measured over 8 h) is reported as “higher than the concentration in plasma”. Also, the “Prodrug concentration in the cell cytosol” value in data set [8] (Study No. 2, 100 μM) is “BLOQ”; in data set [8] (Study No. 2, 500 μM), “BLOQ”. Also, the “d3-Creatine concentration in the cell cytosol” value in data set [8] (Study No. 2, 100 μM) is “BLOQ”. The “brain concentration of d3-creatinine, compound 14 versus compound 15” value in data set [3] is listed as “not significantly different”. In addition, the “Chemical Stability SGF, no enzyme % T0 at 2 hours at 37 °C.” value in data set [4] (Table 2C) was 97%.

Source of the values: patent US11332438B2, “Creatine prodrugs, compositions and methods of use thereof” (Ultragenyx Pharmaceutical Inc., priority 2017, dated 2022).
